Measurements from patent US11065343B2, “Compound bearing beta-galactoside-introduced self-immolative linker” (IntoCell Inc., priority 2016, dated 2021).
Like-named read-outs stand apart in the source and are kept apart here. *1 amine or outer side, *2 acyl side, *3 side chain or, on linkers, in order; H or OH if unused. Where a SMILES comes first, the peptide text is derived from it. [ ]: non-standard residue; d: D form. ξ: configuration not given here. Dil(5ξ) = CCC(C)[C@@H]([C@@H](CC(=O)[*:2])OC)N(C)[*:1]; Dolaproine = CO[C@@H]([C@@H]1CCCN1)[C@@H](C)C(=O)O; NMeV = CN[C@H](C(=O)O)C(C)C; ξF = NC(Cc1ccccc1)C(=O)O

Experiments:
KB cancer cell line = experiment: In vitro cytotoxicity of ligand-drug conjugates (MTT); assay type: cell-based, human; conditions: for IC50: read-out: Cell cytotoxicity IC50
Procedure: KB cancer cell line was seeded 30,000 cells per well of a 96-well plate, and after the culture for 24 hours, the drug MMAF-OMe was treated with a concentration of 0.0097˜10 nM (4-fold serial dilution), ligand-drug conjugate (B) prepared in Comparative Example 2 and ligand-drug conjugate (1) prepared in Example 2 were treated with a concentration of 0.0244-100 nM (4-fold serial dilution). The number of live cell after 72 hours was quantified by using 3-(4,5-dimethylthiazol-2-yl)-2,5-diphenyltetrazolium bromide (MTT) dye as chromogenic reagent. And then formazan reduced by oxidoreductase present in live cells were dissolved in DMSO, and quantified. […] Therefore, in the case of compound (1) to which galactoside linker is introduced, it could be confirmed that it has better efficacy compared with compound (B) to which glucuronide linker is introduced.

folate receptor = molecular target: T1, folate receptor (Homo sapiens, UniProt P15328); experiment: Binding affinity of ligand-drug conjugate to folic acid receptor (competition with FA-Cy5 tracer, polarized light)
T1 construct: Soluble plasma membrane from KB human cancer cells were isolated; endogenous in cells; host or cells: KB human cancer cells (plasma membrane protein extract, Abcam kit ab65400)
Procedure: Soluble plasma membrane from KB human cancer cells were isolated using plasma membrane protein extraction kit (ab65400) (Abcam company). […] After the preincubation for 15 minutes, FA-Cy5 tracer prepared in Preparation Example 10 was treated with a concentration of 1 nM, and after the reaction for 2 hours at 37° C., synergy2 microplate reader (BioTek company) (ex/em=635/688 nm) was used to measure polarized light.

beta-galactosidase = molecular target: T2, beta-galactosidase (Escherichia coli, UniProt P00722); experiment: in vitro; assay type: biochemical, E. coli; conditions: Escherichia coli; beta-galactosidase, PBS buffer, 37° C., HPLC; read-out: hydrolysis half-life by enzyme
T2 construct: purchased Sigma G4155
Procedure: (§1) In order to identify the reactivity of ligand-drug conjugate (1) of Example 2 to β-galactosidase, the difference of the reactivity to R-glucuronidase between it and ligand-drug conjugate (B) of Comparative Example 2 as a comparative material was compared.
(§2) Ligand-drug conjugate (1) of Example 2 and ligand-drug conjugate (B) of Comparative Example 2 were respectively dissolved in DMSO to a concentration of 9 mM, and then each of them was mixed with PBS buffer solution to prepare 500 μM of solution.
(§3) An enzyme reaction solution for ligand-drug conjugate (1) of Example 2 was prepared by adding 1 mg/mL enzyme solution (10 μL) to the mixed solution comprising PBS buffer solution (440 μL) and 500 μM ligand-drug conjugate (1) solution (50 μL) of Example 2, then the reaction was initiated in 37° C. of the incubator.
(§4) Beta-galactosidase enzyme (Sigma G4155) in E. coli was used for the reaction mixture comprising ligand-drug conjugate (1) of Example 2 and beta-glucuronidase enzyme (Sigma G7396) in E. coli was used for the reaction mixture comprising ligand-drug conjugate (B) of Comparative Example 2 for the comparison experiment.
(§5) That is, in the case of compound (1) to which galactoside linker is introduced, it could be confirmed that it has more rapid hydrolysis rate 6 times or more, relative to comparison compound (B) to which glucuronide linker is introduced.

[1] = molecular target: T3, Beta-galactosidase enzyme (Sigma G4155) in E. coli (Escherichia coli, UniProt P00722); experiment: in vitro; assay type: biochemical; conditions: (1) with beta-galactosidase versus (B) with beta-glucuronidase
T3 construct: purchased Sigma G4155
Procedure: as §1, §2, §3, §4, §5

T1 sequence (P15328 25-234): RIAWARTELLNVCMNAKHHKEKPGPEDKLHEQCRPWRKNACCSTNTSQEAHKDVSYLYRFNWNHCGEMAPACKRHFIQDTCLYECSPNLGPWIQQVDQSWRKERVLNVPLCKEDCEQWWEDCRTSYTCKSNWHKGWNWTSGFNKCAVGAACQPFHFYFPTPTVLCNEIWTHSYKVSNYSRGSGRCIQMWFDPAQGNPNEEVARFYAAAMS
T2 sequence (P00722 2-1024): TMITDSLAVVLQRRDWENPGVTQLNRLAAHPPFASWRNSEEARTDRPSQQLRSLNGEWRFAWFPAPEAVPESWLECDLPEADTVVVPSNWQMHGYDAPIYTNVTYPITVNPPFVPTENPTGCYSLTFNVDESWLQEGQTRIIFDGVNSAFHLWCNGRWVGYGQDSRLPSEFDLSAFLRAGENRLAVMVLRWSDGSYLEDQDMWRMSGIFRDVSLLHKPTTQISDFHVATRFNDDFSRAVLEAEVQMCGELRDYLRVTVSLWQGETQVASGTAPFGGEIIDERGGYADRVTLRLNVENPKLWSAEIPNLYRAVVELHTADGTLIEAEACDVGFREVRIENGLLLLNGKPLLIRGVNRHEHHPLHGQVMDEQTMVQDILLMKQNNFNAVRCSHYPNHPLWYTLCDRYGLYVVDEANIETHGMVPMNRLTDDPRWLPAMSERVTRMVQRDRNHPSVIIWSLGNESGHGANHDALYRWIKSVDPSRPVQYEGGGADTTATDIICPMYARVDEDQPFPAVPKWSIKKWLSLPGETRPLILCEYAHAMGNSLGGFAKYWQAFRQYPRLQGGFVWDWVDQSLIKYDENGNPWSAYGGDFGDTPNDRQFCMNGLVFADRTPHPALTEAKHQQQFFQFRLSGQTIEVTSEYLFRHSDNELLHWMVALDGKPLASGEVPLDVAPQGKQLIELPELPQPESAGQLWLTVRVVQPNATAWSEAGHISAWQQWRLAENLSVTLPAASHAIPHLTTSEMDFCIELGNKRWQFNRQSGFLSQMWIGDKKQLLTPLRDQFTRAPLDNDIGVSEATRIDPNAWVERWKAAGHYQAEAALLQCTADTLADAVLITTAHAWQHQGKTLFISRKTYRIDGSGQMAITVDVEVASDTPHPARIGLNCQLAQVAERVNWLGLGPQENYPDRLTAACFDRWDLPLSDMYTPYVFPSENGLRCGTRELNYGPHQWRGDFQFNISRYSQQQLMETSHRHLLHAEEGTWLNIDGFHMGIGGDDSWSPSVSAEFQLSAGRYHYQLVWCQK
T3 sequence (P00722 2-1024): as above

| SMILES | IC50 (KB cancer cell line; Homo sapiens, KB, 72 h) [nM] | IC50 (folate receptor) [nM] | binding affinity (IC50) better than (B) (folate receptor; relative to ligand-drug conjugate (B)) [fold] | half-life at 50 µM (beta-galactosidase) [min] | more rapid hydrolysis rate relative to comparison compound (B) [1] [times] | IC50 (KB cancer cell line; KB cell, 72 hours, MTT) [nM] | cytotoxicity better than conjugate (B) (KB cancer cell line; KB cell, relative to conjugate (B)) |
| --- | --- | --- | --- | --- | --- | --- | --- |
| CCC(C)[C@@H]([C@@H](CC(=O)N1CCC[C@H]1[C@H](OC)[C@@H](C)C(=O)NC(Cc1ccccc1)C(=O)OC)OC)N(C)C(=O)[C@@H](NC(=O)[C@@H](NC)C(C)C)C(C)C (stereo partly shown) [MMAF-OMe, reference compound] (H-[NMeV]V[Dil(5ξ)][Dolaproine][ξF]-OMe) | 0.38 ± 0.17 |  |  |  |  |  |  |
| CCC(C)[C@@H]([C@@H](CC(=O)N1CCC[C@H]1[C@H](OC)[C@@H](C)C(=O)N[C@@H](Cc1ccccc1)C(=O)O)OC)N(C)C(=O)[C@@H](NC(=O)[C@H](C(C)C)N(C)C(=O)OCc1ccc(O[C@@H]2O[C@H](CO)[C@H](O)[C@H](O)[C@H]2O)c(C(=O)NCCOCCOCCOCc2cn(CCC(=O)N[C@@H](CCCCN)C(=O)NCCOCCOCCNC(=O)CC[C@H](NC(=O)c3ccc(NCc4cnc5nc(N)[nH]c(=O)c5n4)cc3)C(=O)O)nn2)c1)C(C)C (stereo partly shown) [ligand-drug conjugate (1)] |  | 17.5 | 2.5 | 34.7 | ≥ 6 | 0.44 ± 0.12 | about twofold |
